EP0348735A2, “5-Chlor-4-cyano-thiazol-2-yl-oxyacetic-acid amide” (BAYER AG, priority 1988, dated 1990)

System: Testpflanzen
Assay: Pre-emergence test (herbicidal activity)
Assay type: in vivo
Conditions: seeds watered with the preparation 24 h after sowing, rated after three weeks, compared in words with the prior-art comparison substance 2-(Benzthiazol-2-yl-oxy)-essigsäure-N-methyl-anilid, no numbers given
Description: Zur Herstellung einer zweckmäßigen Wirkstoffzubereitung vermischt man 1 Gewichtsteil Wirkstoff mit der angegebenen Menge Lösungsmittel, gibt die angegebene Menge Emulgator zu und verdünnt das Konzentrat mit Wasser auf die gewünschte Konzentration.
Samen der Testpflanzen werden in normalen Boden ausgesät und nach 24 Stunden mit der Wirkstoffzubereitung begossen. Dabei hält man die Wassermenge pro Flächeneinheit zweckmäßigerweise konstant. Die Wirkstoffkonzentration in der Zubereitung spielt keine Rolle, entscheidend ist nur die Aufwandmenge des Wirkstoffs pro Flächeneinheit. Nach drei Wochen wird der Schädigungsgrad der Pflanzen bonitiert in % Schädigung im Vergleich zur Entwicklung der unbehandelten Kontrolle.

In the case of `CN(C(=O)COc1nc(C#N)c(Cl)s1)c1ccccc1` [Beispiel 1, 2-(5-Chlor-4-cyanothiazol-2-yl-oxy)-essigsäure-N-methyl-anilid], the “Wirksamkeit (Schädigungsgrad der Pflanzen in % Schädigung im Vergleich zur unbehandelten Kontrolle)” value is reported as “deutliche Überlegenheit in der Wirksamkeit”.
